Entries after “also recorded” stand apart in the source; their conditions may differ.
Tests used:
Toxicity of MOE analogs = format: cell-based
stem cells = experiment: Control of stem cell fate; format: cell-based, human
Text: The combination of the biological activities SCFA- and sugar activities of compounds (such as Bu4ManNAc or l(OH)But3ManNAc is useful for cancer treatment because each of the biological activities of the hybrid molecule have been designed to work in concert against a particular characteristic of cancer. An equally valuable aspect of the current invention, however, is ability to separate the various biological activities of the hybrid molecules—for example it is now possible to maintain flux through a glycosylation pathway and to simultaneously avoid or minimize SCFA effects such as toxicity or changes to gene expression that affect the cellular phenotype under investigation (see FIG. 10). This ability opens the door to the many scenarios where an SCFA is attached to a core sugar towards the sole purpose of increasing the metabolic efficiency of the sugar without triggering biological activities of the SCFA moiety. In this case, non-natural monosaccharide analogs would transit the glycosylation pathways without eliciting unrelated changes to proliferation, apoptosis, or gene expression that would either confound interpretation of the experiment under way or actually lead to deleterious cellular outcomes. […]

human cancer cells = experiment: Killing of cancer cells by SCFA-hexosamine hybrid molecules (apoptosis, growth); format: cell-based
Text: ManNAc has several attractive features that led us to select it as an hexosamine for use in butyrate-sugar hybrid drug development. First, it is a committed precursor for the sialic acid biosynthetic pathway and has no other known metabolic roles, thereby allowing a specific and unique biochemical pathway to be targeted. Second, uptake of exogenous ManNAc alters flux through the sialic acid biosynthetic pathway and changes sialyltransferase and sialidase activity thereby altering the display of sialic acid on cell surface glycoproteins and glycolipids. Because these sialoglycans modulate apoptosis, it was hypothesized that an n-butyrate prodrug with ManNAc as an active carrier would both “arrest” and “execute” cancer cells via SCFA-mediated cell cycle inhibition and ManNAc-augmented apoptosis, respectively. […]
Jurkat cells (5.0×10^5 per mL) are incubated with PBS and a compound of the invention at […]. After 48 h, the cells are counted, harvested, washed once in fresh medium and plated in a 24-well plate containing various concentrations of sodium butyrate (0-2.0 mM; a stock solution of 200 mM in PBS was used for dilutions and control samples). Cell cultures are maintained and growth is monitored for 15 days as described above under the toxicity and growth inhibition assays. […]

sialic acid biosynthesis = experiment: Total sialic acid production (periodate-resorcinol assay); format: cell-based
Description: Jurkat cells (5.0×10^6 cells in 10 mL medium) are incubated a compound of the invention at various concentrations. After three days, the cells (1.0×10^6 cells per sample) are lysed by freeze-thaw cycles (three times). The cell lysates are analyzed by using an adapted version of the periodate-resorcinol assay with the periodic acid oxidation step performed on ice to allow quantification of total (i.e., free monosaccharide plus glycoconjugate-bound) sialic acid. For each assay, a standard curve is obtained using N-acetylneuraminic acid (Pfanstiehl, Waukegan, Ill.) for calibration.

histone deacetylase = experiment: HDAC inhibitor (SCFA) activity of sugar-delivered butyrate; format: cell-based
Text: In this section, we present evidence for the first aspect of our model to describe the bioactivity of the compounds of the invention against cancer cells—namely that sugar-delivered butyrate acts as an HDACi—by a set of three complementary assays. […] Together, these assays provide convincing proof that sugar-delivery n-butyrate retains its characteristic SCFA bioactivity.

Jurkat cells [1] = experiment: Toxicity and growth inhibition assays (cell counts, days 3-15); format: cell-based, human
Description: Solutions of the analogs in EtOH (10 mM stock) are coated onto 24-well plates at a range of concentrations from 0-320 μM and ethanol is allowed to evaporate. Jurkat cells (1.0×10^5 cells) in 0.5 mL of medium are plated in each well (day 0). On days 3 and 5, fresh medium (1.0 mL) is added to each well. Cell cultures are mixed by gentle pipetting and 100 μL of cell suspension are taken from each well and counted. On days 7, 9, 11, 13 and 15, 1.0 mL of cell suspension is removed from each well after thorough mixing and fresh medium (1.0 mL) is added. Cells are counted on day 15 and the cell density is plotted as a percentage of control.
In initial assays, Jurkat (human T-lymphoma) cells are incubated with compounds of the invention and growth rates were monitored. The compounds reduce cell proliferation at early time points (days 3 & 5) in a dose dependent manner.

Jurkat cells [2] = experiment: Surface expression of Sia5Lev: ketone-bearing sialosides by biotin hydrazide, FITC-avidin, flow cytometry; format: cell-based, human
transformed cells = conditions: cited from earlier work

CCCC(=O)OC1O[C@H](CO)[C@@H](OC(=O)CCC)[C@H](OC(=O)CCC)[C@@H]1NC(C)=O (some centres unmarked) [6(OH)But3ManNAc, 1,3,4-O-Bu3ManNAc]
toxicity (Toxicity of MOE analogs): avoiding toxicity

CC(=O)OCC(=O)N[C@@H]1C(OC(C)=O)O[C@H](COC(C)=O)[C@@H](OC(C)=O)[C@@H]1OC(C)=O (some centres unmarked) [Ac5ManNGc]
toxicity (Toxicity of MOE analogs): considerable toxicity

CC(=O)OCC1OC(OC(C)=O)C(NC(=O)CSC(C)=O)C(OC(C)=O)C1OC(C)=O (centres unmarked) [Ac5ManNTGc]
fate of stem cells (stem cells): can control the fate of stem cells
toxicity (Toxicity of MOE analogs): considerable toxicity

CCCC(=O)OCC1OC(OC(=O)CCC)C(NC(C)=O)[C@@H](OC(=O)CCC)[C@@H]1OC(=O)CCC (some centres unmarked) [Bu4ManNAc]
cell killing (human cancer cells): ultimately killed the cells
induction of apoptosis (human cancer cells): gains a unique ability to induce apoptosis; also recorded: efficiently induced apoptosis
sialic acid biosynthesis (sialic acid biosynthesis): activates sialic acid biosynthesis; also recorded: primes sialic acid biosynthesis
function as histone deacetylase inhibitor (HDACi) (histone deacetylase): functioning as an HDACi

CCCC(=O)OC1O[C@H](CO)[C@@H](OC(=O)CCC)[C@H](OC(=O)CCC)[C@@H]1NC(=O)CCC(C)=O (stereo partly drawn) [compound 13, 1,3,4-tri-O-butanoyl-2-deoxy-2-(4-oxopentanoyl)amino-α,β-D-mannopyranose]
Growth inhibition after 3 days (Jurkat cells [1]): significantly less inhibitory
Surface detection of ketone-bearing sialosides (cell surface ketone labeling) (Jurkat cells [2]): even more efficient at providing cell surface ketone labeling

CCCC(=O)O.COc1cccc(C#CCON=C2CN3CCC2C3)c1 (centres unmarked) [n-Butyrate, n-butyrate]
levels needed for bioactivity (transformed cells): up to 50 mM
